One assay addresses T1, Thyroid peroxidase (Homo sapiens, UniProt P07202).
T1 sequence (P07202 19-933): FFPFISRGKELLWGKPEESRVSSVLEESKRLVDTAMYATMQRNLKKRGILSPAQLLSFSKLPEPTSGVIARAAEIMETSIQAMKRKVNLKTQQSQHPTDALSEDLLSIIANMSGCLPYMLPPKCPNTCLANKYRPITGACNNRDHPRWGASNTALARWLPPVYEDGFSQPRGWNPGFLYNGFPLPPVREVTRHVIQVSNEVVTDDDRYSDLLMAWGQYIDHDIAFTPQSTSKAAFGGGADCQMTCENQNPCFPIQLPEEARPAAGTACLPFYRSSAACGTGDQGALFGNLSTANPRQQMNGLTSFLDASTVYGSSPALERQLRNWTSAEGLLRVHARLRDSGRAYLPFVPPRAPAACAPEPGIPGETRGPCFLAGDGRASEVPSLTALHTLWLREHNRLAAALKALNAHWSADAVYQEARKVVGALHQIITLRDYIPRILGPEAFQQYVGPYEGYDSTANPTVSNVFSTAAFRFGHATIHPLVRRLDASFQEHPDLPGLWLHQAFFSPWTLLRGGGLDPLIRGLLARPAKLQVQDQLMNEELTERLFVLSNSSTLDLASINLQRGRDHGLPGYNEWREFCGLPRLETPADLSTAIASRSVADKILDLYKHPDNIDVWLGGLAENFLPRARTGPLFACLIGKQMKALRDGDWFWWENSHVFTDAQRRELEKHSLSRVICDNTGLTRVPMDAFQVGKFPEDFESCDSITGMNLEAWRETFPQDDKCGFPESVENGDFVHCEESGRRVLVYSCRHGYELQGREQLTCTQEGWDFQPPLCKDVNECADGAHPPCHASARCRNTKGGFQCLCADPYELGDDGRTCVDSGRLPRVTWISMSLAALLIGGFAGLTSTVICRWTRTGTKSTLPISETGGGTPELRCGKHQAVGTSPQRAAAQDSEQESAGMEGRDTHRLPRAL
As to the kind of experiment: Inhibition of peroxidase activities with PS-1 by methimazole: Thyroid peroxidase. It counts as biochemical. Particulars: 50 μmol/L methimazole, enzyme 1 μg/mL. The protocol:
(§1) Urine samples were diluted 1:4 into distilled water to minimize inhibitory effects observed with hyperosmolal urines. Two μL of diluted urine were added to 12×75 mm polystyrene test tube containing 50 μL of the PS-1 solution. The tubes were incubated at 37° C. for 5 minutes. MPO activity was determined by chemiluminescence emission using a Turner TD-20e luminometer maintained at 37° C. Leukocyte counting was performed manually by using a hemacytometer chamber (Kova Glasstic slide, Hycor, Irvine, Calif.) on each urine sample to determine the number of cells/mL.
(§2) The reactivity of PS-1 with heme proteins was assessed to determine if this substrate had more restricted specificity. Materials and methods were according to the description above.
(§3) Several peroxidases were detected with PS-1 substrate including EPO, MPO, LPO, and TPO. Addition of 50 μmol/L methimazole, an inhibitor of EPO, reduces activities of EPO, TPO and LPO by >90%, while MPO was inhibited by less than about 50% (Table 6). The addition of methimazole to the PS-1 assay allows MPO activity to be detected selectively.

A further assay addresses T2, Myeloperoxidase (Homo sapiens, UniProt P05164).
T2 sequence (P05164 49-745): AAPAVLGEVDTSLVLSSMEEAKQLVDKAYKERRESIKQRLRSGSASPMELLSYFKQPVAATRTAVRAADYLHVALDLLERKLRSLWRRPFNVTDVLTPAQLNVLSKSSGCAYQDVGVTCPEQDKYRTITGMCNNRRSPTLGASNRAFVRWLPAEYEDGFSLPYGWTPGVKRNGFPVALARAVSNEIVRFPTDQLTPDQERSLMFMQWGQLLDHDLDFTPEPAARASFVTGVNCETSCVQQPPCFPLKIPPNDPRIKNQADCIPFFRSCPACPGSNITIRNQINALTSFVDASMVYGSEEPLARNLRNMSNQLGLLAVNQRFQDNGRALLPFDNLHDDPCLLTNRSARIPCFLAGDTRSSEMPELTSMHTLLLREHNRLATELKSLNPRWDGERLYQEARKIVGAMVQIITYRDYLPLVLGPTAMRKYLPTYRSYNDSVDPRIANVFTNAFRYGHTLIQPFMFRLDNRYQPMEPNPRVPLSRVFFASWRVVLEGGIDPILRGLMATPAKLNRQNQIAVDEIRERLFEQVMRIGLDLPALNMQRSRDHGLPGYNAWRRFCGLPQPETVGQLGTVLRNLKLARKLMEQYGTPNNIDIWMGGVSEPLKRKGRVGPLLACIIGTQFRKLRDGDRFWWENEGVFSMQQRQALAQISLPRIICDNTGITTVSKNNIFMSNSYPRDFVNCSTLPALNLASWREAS
The assay can be described thus: Inhibition of peroxidase activities with PS-1 by methimazole: Myeloperoxidase. Particulars: 50 μmol/L methimazole, enzyme 1 μg/mL. It counts as biochemical. As for the experimental part:
as §1, §2, §3

In another assay the target is Lactoperoxidase (Bos taurus, UniProt P80025). The assay can be described thus: Inhibition of peroxidase activities with PS-1 by methimazole: Lactoperoxidase. It counts as biochemical. Particulars: 50 μmol/L methimazole, enzyme 1 μg/mL. The protocol: as §1, §2, §3
For another assay, the target named is T3, Eosinophil Peroxidase (Homo sapiens, UniProt P11678).
T3 sequence (P11678 140-715): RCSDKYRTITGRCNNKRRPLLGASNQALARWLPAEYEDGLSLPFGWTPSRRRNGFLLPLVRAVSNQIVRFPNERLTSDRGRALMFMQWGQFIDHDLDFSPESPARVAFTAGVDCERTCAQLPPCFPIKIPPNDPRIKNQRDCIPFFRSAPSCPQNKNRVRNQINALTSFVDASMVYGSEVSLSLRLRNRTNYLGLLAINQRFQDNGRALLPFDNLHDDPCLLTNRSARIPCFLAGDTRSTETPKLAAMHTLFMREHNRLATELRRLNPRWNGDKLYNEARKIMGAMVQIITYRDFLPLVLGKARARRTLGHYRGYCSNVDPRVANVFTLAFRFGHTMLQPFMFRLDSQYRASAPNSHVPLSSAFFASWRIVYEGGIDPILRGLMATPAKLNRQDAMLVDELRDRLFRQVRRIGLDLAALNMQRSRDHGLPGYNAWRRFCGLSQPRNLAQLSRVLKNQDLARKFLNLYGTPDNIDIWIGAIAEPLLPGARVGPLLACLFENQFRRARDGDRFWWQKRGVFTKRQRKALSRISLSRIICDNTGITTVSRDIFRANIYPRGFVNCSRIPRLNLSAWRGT
As to the kind of experiment: Inhibition of peroxidase activities with PS-1 by methimazole: Eosinophil Peroxidase. The class given is biochemical. Particulars: 50 μmol/L methimazole, enzyme 1 μg/mL. As for the experimental part: as §1, §2, §3

In the next assay the target is T4, Myoglobin (Homo sapiens, UniProt P02144).
T4 sequence (P02144 1-154): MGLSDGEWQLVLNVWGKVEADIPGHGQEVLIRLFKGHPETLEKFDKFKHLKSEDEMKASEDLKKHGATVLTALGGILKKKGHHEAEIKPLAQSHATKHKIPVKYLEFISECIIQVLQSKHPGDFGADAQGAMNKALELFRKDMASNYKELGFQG
As to the kind of experiment: Inhibition of peroxidase activities with PS-1 by methimazole: Myoglobin. The class given is biochemical. Particulars: 50 μmol/L methimazole, protein 1 μg/mL. The protocol: (§4) Centricon ultrafiltration filters were obtained from Amicon (Daven, Mass.). Polystyrene tubes (5.0 mL volume, 75×12 mm) used for the assay were manufactured by Sarstedt (Arlington Heights, Ill.). The chemiluminescent substrate, 7-dimethylamino-naphthalene-1,2-dicarbonic acid-hydrazide (7-DNH) was purchased from Boehringer Mannheim (Indianapolis, Ind.). PS-1 acridan substrate (solution A and solution B) was obtained from Lumigen Inc. (Southfield, Mich.). Dimethyl sulfoxide, cetyltrimethyl-ammonium chloride (CTAC) as a 25% liquid and glycerol were obtained from Aldrich Chemical Company Inc. (Milwaukee, Wis.). Tween-20 and Sodium Chloride were purchased from Fisher Scientific (Fair Lawn, N.J.). […]
(§5) Urine samples were diluted 1:4 into distilled water to minimize inhibitory effects observed with hyperosmolal urines. […] MPO activity was determined by chemiluminescence emission using a Turner TD-20e luminometer maintained at 37° C. […]
(§6) The reactivity of PS-1 with heme proteins was assessed to determine if this substrate had more restricted specificity. […]

The next assay deals with Hemoglobin (Homo sapiens, UniProt P68871+P69905). As to the kind of experiment: Inhibition of peroxidase activities with PS-1 by methimazole: Hemoglobin. Particulars: 50 μmol/L methimazole, protein 1 μg/mL. The class given is biochemical. As for the experimental part:
as §4, §5, §6

The next assay has as its target T5, MPO (Homo sapiens, UniProt P05164).
T5 sequence (P05164 49-745): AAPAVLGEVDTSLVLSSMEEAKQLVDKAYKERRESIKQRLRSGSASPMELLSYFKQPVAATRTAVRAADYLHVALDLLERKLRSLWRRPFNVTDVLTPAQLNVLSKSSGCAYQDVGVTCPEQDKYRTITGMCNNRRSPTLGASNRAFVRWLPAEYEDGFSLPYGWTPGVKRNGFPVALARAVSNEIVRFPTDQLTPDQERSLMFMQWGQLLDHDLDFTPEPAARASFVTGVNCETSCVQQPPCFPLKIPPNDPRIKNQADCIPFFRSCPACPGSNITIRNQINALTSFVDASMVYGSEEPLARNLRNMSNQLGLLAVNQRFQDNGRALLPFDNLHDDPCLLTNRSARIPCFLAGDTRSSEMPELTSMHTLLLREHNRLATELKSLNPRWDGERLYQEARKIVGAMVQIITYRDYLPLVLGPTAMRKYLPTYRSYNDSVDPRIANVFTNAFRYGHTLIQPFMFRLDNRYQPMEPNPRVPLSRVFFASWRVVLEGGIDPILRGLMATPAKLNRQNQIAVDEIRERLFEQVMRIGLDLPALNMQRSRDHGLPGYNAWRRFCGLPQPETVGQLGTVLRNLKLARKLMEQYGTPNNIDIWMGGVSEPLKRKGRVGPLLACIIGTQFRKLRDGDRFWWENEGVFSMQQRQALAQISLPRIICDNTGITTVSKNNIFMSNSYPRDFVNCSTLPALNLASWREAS
The assay can be described thus: Effects of potential interfering substances in WBC (MPO, PS-1) assay. The class given is biochemical. As for the experimental part: as §1
Several possible interfering substances were added to urine and tested for inhibitory effects. Several common medications were also tested for potential inhibitory effects. […] Hb at concentrations of >10 μg/mL and Mb at concentrations >2 μg/mL were detected by the PS-1 substrate as the chemiluminescence emission was above the normal urine background. Samples grossly populated with bacteria caused slight inhibition of the MPO activity. Urine samples may contain many epithelial cells, casts, crystals, and numerous artifacts but none of these appear to interfere with the chemiluminescence emission from MPO.

The nature of assay [1]: Activity of hemoglobin and myoglobin (oxidation states of iron, standard curves) with 7-DNH. The class given is biochemical. The protocol: The effect of the oxidation state of the heme iron on chemiluminescence emission was evaluated. Equal concentrations of hemoglobin and myoglobin were used. Standard solutions of Hb and Mb at varying concentrations were assayed to evaluate their behavior in the reaction.
With the addition of dithionite to the lysing agent, all of the iron in hemoglobin is immediately converted to the ferrous oxidation which subsequently reacts with H2 O2 and the substrate to form product. OxyHb and oxyMb […] were made by reducing methemoglobin/metmyoglobin with sodium dithionite and then oxygenating each protein by subsequent passage through a Sephadex column. The oxidation of oxyHb/oxyMb to the ferry (Fe^+4) oxidation state was achieved by adding an excess of H2 O2 to the protein solutions.

Another assay concerns Hb. As to the kind of experiment: Interference studies in Hb assay (7-DNH chemiluminescence). It counts as biochemical, human. As to conditions: level producing a signal equivalent to 3 RBC per high power field, fixed Hb concentration. As for the experimental part:
Numerous potential interfering substances, which either enhance or quench the signal generated by cyclic hydrazides, were evaluated. The effects of these potentially interfering substances on light emission was investigated at varying concentrations of the interfering composition. Assays were performed using serial dilutions of the potential interfering compositions in ultrafiltered urine at a fixed concentration of Hb. Comparisons of chemiluminescence emission were made between a reference solution (Hb in ultrafiltered urine) without added interfering compositions and solutions with added interferant.
Generally, the value of 3 RBC per high power field is the normal cutoff point.
Bilirubin and uric acid were examined as a possible negative interfering compositions because of their chemical structure which may quench energy emitted.

Bounds are passed on as bounds.

Chain of Hemoglobin (P69905 whole entry): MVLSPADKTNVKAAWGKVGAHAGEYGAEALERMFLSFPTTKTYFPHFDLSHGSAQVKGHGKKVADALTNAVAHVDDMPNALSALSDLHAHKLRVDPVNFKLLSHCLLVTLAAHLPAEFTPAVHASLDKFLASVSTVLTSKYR
Chain of Hemoglobin (P68871 whole entry): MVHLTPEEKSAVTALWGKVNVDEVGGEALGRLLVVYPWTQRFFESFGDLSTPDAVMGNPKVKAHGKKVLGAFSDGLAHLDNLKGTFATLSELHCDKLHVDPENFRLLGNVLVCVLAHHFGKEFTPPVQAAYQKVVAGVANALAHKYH

Regarding `Cn1cc[nH]c1=S` [Methimazole, methimazole], the Chemiluminescence with methimazole at Thyroid peroxidase is 0.1 TLU; on Myeloperoxidase, 130 TLU; at Lactoperoxidase, 0.9 TLU; at Eosinophil Peroxidase, 74 TLU; at Myoglobin, 1.9 TLU; on Hemoglobin it was 0.8 TLU. Besides, the inhibition at 50 µM is above 90% on Thyroid peroxidase; 58% against Myeloperoxidase; above 90% against Lactoperoxidase; above 90% against Eosinophil Peroxidase; 39% against Myoglobin; 9% on Hemoglobin.

B1: Myoglobin: Human heart myoglobin obtained from Calbiochem (protein, UniProt P02144 2-154, looked up)
Myoglobin: GLSDGEWQLVLNVWGKVEADIPGHGQEVLIRLFKGHPETLEKFDKFKHLKSEDEMKASEDLKKHGATVLTALGGILKKKGHHEAEIKPLAQSHATKHKIPVKYLEFISECIIQVLQSKHPGDFGADAQGAMNKALELFRKDMASNYKELGFQG
As to B1, in the assay with MPO (Mb <2 μg/mL), the “interference with PS-1 assay” value was “did not interfere”. The molecule further yielded an Interference in the assay with MPO (level giving signal equal to 5 WBC/high power field, highest tested: hemoglobin 250, myoglobin 200 μg/mL) above 2 µg/mL. In assay [1] (alternative source of Mb, 7-DNH), the “reactivity of Mb relative to Hb (fold less reactive)” value is reported as “about 30 -fold”. For the same molecule, the “activity compared to Hb” value in assay [1] (up to 4 μg/mL, FIG. 7) is recorded as “very little activity”. The “Level of Interference” value in the assay with Hb was above 3.8 µg/mL; in the assay on Hb (listed as Mb) it was “above 4 μg/mL”; in the assay on Hb (listed as myoglobin) it was “approximately 4 μg/mL”.

The term inhibition denotes how much of the control response was suppressed. A high value points to a response far below the control.

Source of the values: US6087121A, “Chemiluminescent detection of heme proteins in biological samples” (Mayo Foundation for Medical Education and Research, priority 1999, dated 2000).
